Where a name gives a salt, the structure may show the parent alone. Read-outs that look alike come from different tables or passages of the source.
Experiments:
HCV gT1b replicon = assay: HCV replicon assay, gT1b; type: cell-based, Hepatitis C virus (HCV); settings: Hepatitis C virus, GT1B, Huh-7, Huh7 replicon cells, mean value
Experimental: The HCV replicon assay was used to determine the antiviral activity of compounds of general formula 2 (test compounds). The test cell line used in the HCV Replicon Assay was the human hepatoma cell line Huh7 incorporating the HCV replicons synthesized by an outside vendor.
96-well plates were seeded with cells at a density of 7.5×10^3 cells per well in 50 μl of assay media. The compound stock solution was made up freshly in an assay medium (DMEM 1×, Cellgro; cat. #10-013-CV) as a 2× stock. A total of 11 serial 3-fold dilutions of test compounds were prepared from the 2× stock in the assay media ranging from 20 nM-0.2 pM final concentrations. At least 4 hours after seeding the cells, compound treatment was initiated by adding 50 μl of compound dilution to the plates. The final concentrations of compound therefore ranged from 10 nM to 0.1 pM when diluted 1:1 in culture media. The final DMSO concentration was 0.5%. Cells and inhibitors were incubated for 3 days at 37° C./5% CO2. The media was removed from the plates by gentle tapping. The cells were fixed with 100 μl 1:1 acetone:methanol for 1 minute, washed three times with PBS buffer, and then blocked with 150 μl/well 10% Fetal Bovine Serum (FBS) in PBS for 1 hour at room temperature. The cells were then washed three times with PBS buffer and incubated with 100 μl/well anti-hepatitis C core mAb (Affinity BioReagents; cat. # MA1-080, 1 mg/ml stock diluted 1:4,000 in 10% FBS-PBS) for 2 hours at 37° C. Then, the cells were washed three times with PBS and incubated with 100 μl/well HRP-Goat Anti-Mouse antibody (diluted 1:3.500 in 10% FBS-PBS) for 1 hour at 37° C. The cells were then washed three times with PBS and developed with an OPD solution, 100 μl/well (1 OPD tablet+12 ml citrate/phosphate buffer+5 μl 30% H2O2 per plate), for 30 minutes in the dark at room temperature. The reaction was stopped with 2N H2SO4 (100 μl/well), and the absorbance was measured at A490 X on a Victor^3 V 1420 multilabel counter (Perkin Elmer).

[1] = Cytotoxicity, cell viability by ATPLite Kit; type: cell-based, human; settings: human, Huh7 cells (human hepatoma cell line), 10% FBS, maximal inhibition, read-out: Cytotox gT1b 10% FBS max. inh.
Experimental: The cytotoxicity of the test compounds was studied in parallel using the same cell line, Huh7. Cell viability was determined using the ATPLite Kit (Perkin-Elmer, Boston, USA), according to manufacturer's instructions. 96-well black/transparent bottom plates were seeded with cells at a density of 7.5×10^3 cells per well in 50 μl medium. After 18 hours, compound treatment was initiated by adding 50 μl of compound dilution into the plates. Each compound dilution was tested in triplicates. The cells and inhibitors were then incubated for 96 hours at 37° C./5% CO2. The plates were washed twice with PBS (0.2 ml/well), and then lysed by adding lysis buffer, 0.05 ml/well (all reagents were included with the ATPLite Kit). After rocking for 5 min on a rocking platform, substrate buffer was added (0.05 ml/well). After additional 5-min incubation, the plates were kept in dark for 10 min, and the luminescence was read using TopCount NXT (Packard, Perkin Elmer). CC50 values for all test compounds were determined using XLfit 4.1 software (Table 2).

[2] = 10% FBS, read-out: gT1b 10% FBS, EC50 (pM) mean
[3] = 40% NHS, read-out: gT1b 40% NHS, EC50 (pM) mean

| SMILES | EC50 (HCV gT1b replicon; [2]) | EC50 (HCV gT1b replicon; [3]) | inhibition at 96 h [1] |
| --- | --- | --- | --- |
| COC(=O)N[C@H](C(=O)N1CCC[C@H]1c1ncc(C#CC#Cc2ccc(-c3cnc([C@@H]4CCCN4C(=O)[C@@H](NC(=O)OC)C(C)C)[nH]3)cc2-c2ccc3ccccc3c2)[nH]1)C(C)C [2(4)•2HCl, [(S)-1-((S)-2-{5-[4-(4-{2-[(S)-1-((S)-2-Methoxycarbonylamino-3-methyl-butyryl)-pyrrolidin-2-yl]-3H-imidazol-4-yl}-2-naphthalen-2-yl-phenyl)-buta-1,3-diynyl]-1H-imidazol-2-yl}-pyrrolidine-1-carbonyl)-2-methyl-propyl]-carbamic acid methyl ester dihydrochloride] | 1.56 pM | 16.3 pM | 31% |
| COC(=O)N[C@H](C(=O)N1CCC[C@H]1c1ncc(C#CC#Cc2ccc(-c3cnc([C@@H]4CCCN4C(=O)[C@@H](NC(=O)OC)C(C)C)[nH]3)cc2-c2ccccc2)[nH]1)C(C)C [2(1)•2HCl, [(S)-1-((S)-2-{5-[4-(5-{2-[(S)-1-((S)-2-Methoxycarbonylamino-3-methyl-butyryl)-pyrrolidin-2-yl]-3H-imidazol-4-yl}-biphenyl-2-yl)-buta-1,3-diynyl]-1H-imidazol-2-yl}-pyrrolidine-1-carbonyl)-2-methyl-propyl]-carbamic acid methyl ester dihydrochloride] | 1.79 pM | 12.4 pM | 42% |
| COC(=O)N[C@H](C(=O)N1CCC[C@H]1c1ncc(-c2ccc(C#CC#Cc3cnc([C@@H]4CCCN4C(=O)[C@H](NC(=O)OC)c4ccccc4)[nH]3)c(-c3ccc(-c4ccccc4)cc3)c2)[nH]1)C(C)C [2(13)•2HCl, [(S)-1-((S)-2-{5-[6-(4-{2-[(S)-1-((R)-2-Methoxycarbonylamino-2-phenyl-acetyl)-pyrrolidin-2-yl]-3H-imidazol-4-yl}-buta-1,3-diynyl)-[1,1′;4′,1″]terphenyl-3-yl]-1H-imidazol-2-yl}-pyrrolidine-1-carbonyl)-2-methyl-propyl]-carbamic acid methyl ester dihydrochloride] | 1.61 pM | 14.4 pM | 24% |
| COC(=O)N[C@H](C(=O)N1CCC[C@H]1c1ncc(C#CC#Cc2ccc(-c3cnc([C@@H]4CCCN4C(=O)[C@@H](NC(=O)OC)C(C)C)[nH]3)cc2-c2cccc(C(C)(C)C)c2)[nH]1)C(C)C [2(2)•2HCl, [(S)-1-((S)-2-{5-[4-(3′-tert-Butyl-5-{2-[(S)-1-((S)-2-methoxycarbonylamino-3-methyl-butyryl)-pyrrolidin-2-yl]-3H-imidazol-4-yl}-biphenyl-2-yl)-buta-1,3-diynyl]-1H-imidazol-2-yl}-pyrrolidine-1-carbonyl)-2-methyl-propyl]-carbamic acid methyl ester dihydrochloride] | 1.67 pM | 6.6 pM | 38% |
| COC(=O)N[C@H](C(=O)N1CCC[C@H]1c1ncc(-c2ccc(C#CC#Cc3cnc([C@@H]4CCCN4C(=O)[C@H](NC(=O)OC)c4ccccc4)[nH]3)c(-c3cccc(C(C)(C)C)c3)c2)[nH]1)C(C)C [2(10)•2HCl, [(S)-1-((S)-2-{5-[3′-tert-Butyl-6-(4-{2-[(S)-1-((R)-2-methoxycarbonylamino-2-phenyl-acetyl)-pyrrolidin-2-yl]-3H-imidazol-4-yl}-buta-1,3-diynyl)-biphenyl-3-yl]-1H-imidazol-2-yl}-pyrrolidine-1-carbonyl)-2-methyl-propyl]-carbamic acid methyl ester dihydrochloride] | 1.22 pM | 8.13 pM | 37% |
